≈ marks a conversion by molar mass, not a printed value.
Columns and labels:
Format in all cases: cell-based
Candida rugosa = assay: Antifungal MIC, microtiter broth dilution; conditions: Candida rugosa strain 94-10; 35° C., 24-48 hours
Experimental: (§1) The antifungal activity for the hydroxyesters of 7-desmethylrapamycin of this invention was confirmed in a standard pharmacological test procedure which measured the ability of the compound being evaluated to inhibit fungal growth. 7-Desmethylrapamycin 42-ester with 3-hydroxy-2-(hydroxymethyl)-2-methylpropionic acid (Compound I) was evaluated as a representative compound of this invention. The procedure used and results obtained are briefly described below. A 96 U-bottom microtiter plate was filled (50 μl/well) with RPMI 1640. The compounds to be evaluated were placed in appropriate wells, and serial diluted in successive wells to provide 11 dilutions. The concentrations ranged from 64 through 0.06 μg/ml. An adjusted inoculum of fungi (50 μl) was added to each well and the plates were incubated at 35° C. for 24-48 hours. […] Nystatin and amphotericin B were used for the purpose of comparison.

Aspergillus niger = assay: Antifungal MIC, microtiter broth dilution; conditions: 35° C., 24-48 hours
Experimental: as §1

Candida albicans = assay: Antifungal MIC, microtiter broth dilution; conditions: 35° C., 24-48 hours
Experimental: as §1

Candida pseudotropicalis = assay: Antifungal MIC, microtiter broth dilution; conditions: Candida pseudotropicalis strain ATCC 28838; 35° C., 24-48 hours
Experimental: as §1

Candida parapsilosis = assay: Antifungal MIC, microtiter broth dilution; conditions: 35° C., 24-48 hours
Experimental: as §1

Candida krussii = assay: Antifungal MIC, microtiter broth dilution; conditions: Candida krussii strain 94-2; 35° C., 24-48 hours
Experimental: as §1

Aspergillus fumigatus = assay: Antifungal MIC, microtiter broth dilution; conditions: Aspergillus fumigatus strain ATCC 26933; 35° C., 24-48 hours
Experimental: as §1

Candida tropicalis = assay: Antifungal MIC, microtiter broth dilution; conditions: 35° C., 24-48 hours
Experimental: as §1

Candida lusitaniae = assay: Antifungal MIC, microtiter broth dilution; conditions: Candida lusitaniae strain 94-3; 35° C., 24-48 hours
Experimental: as §1

[1] = tested on: U87MG human glioblastoma cells; assay: Inhibition of U87MG human glioblastoma cell growth (3H-thymidine incorporation); conditions: 48 hours incubation
Experimental: The antineoplastic activity of the compounds of this invention were confirmed in a standard pharmacological test procedure which measures the inhibition of U87MG human glioblastoma cell growth (as a function of ^3H-thymidine incorporation), using 7-desmethylrapamycin 42-ester with 3-hydroxy-2-(hydroxymethyl)-2-methylpropionic acid (Compound I) as are presentative compound of this invention. The following briefly describes the procedure used and results obtained. U87MG human glioblastoma cells (ATCC # HTB-14; available from the American Type Culture Collection; 10801 University Boulevard; Manassas, Va. 20110;), were grown in the following media.
BRL Minimum Essential Medium with Earle Salts (500 mL)
+5 mL BRL MEM Non-Essential Amino Acids (10 mM)
+5 mL BRL Penicillin-Streptomycin (10000 u/mL, 10000 μg/mL)
+5 mL BRL Na Pyruvate Solution (100 mM)
+5 mL BRL L-Glutamine 200 mM
+50 mL BRL Fetal Bovine Serum (Qualified)
1. Cells were trypsinized and plated at a concentration of 10^4 cells/well in a final volume of 200 μL growth medium in 96-well flat bottom plates and allowed to adhere for 24 hours at 37° C.
2. The media was removed by aspiration with care to not disturb the cell monolayer. 200 μL of fresh growth media was added per well, allowing enough wells for samples to be run in triplicate. […]
4. […] Mats were counted in a Wallac Betaplate counter.

[2] = Candida albicans strain ATCC 90028
[3] = Candida parapsilosis strain 94-8
[4] = Candida parapsilosis strain 94-9
[5] = Candida parapsilosis strain ATCC 90018
[6] = Candida tropicalis strain 94-13
[7] = Candida tropicalis strain 94-14

Row | SMILES | ANTIFUNGAL ACTIVITY (MIC) (Candida rugosa) [µg/mL] | ANTIFUNGAL ACTIVITY (MIC) (Aspergillus niger; Aspergillus niger strain S399) [µg/mL] | ANTIFUNGAL ACTIVITY (MIC) (Aspergillus niger; Aspergillus niger strain S430) [µg/mL] | ANTIFUNGAL ACTIVITY (MIC) (Candida albicans; Candida albicans strain 1063) | ANTIFUNGAL ACTIVITY (MIC) (Candida albicans; Candida albicans strain 1117) [µg/mL] | ANTIFUNGAL ACTIVITY (MIC) (Candida albicans; [2]) [µg/mL] | ANTIFUNGAL ACTIVITY (MIC) (Candida pseudotropicalis) | ANTIFUNGAL ACTIVITY (MIC) (Candida parapsilosis; [3]) | ANTIFUNGAL ACTIVITY (MIC) (Candida parapsilosis; [4]) [µg/mL] | ANTIFUNGAL ACTIVITY (MIC) (Candida parapsilosis; [5]) | ANTIFUNGAL ACTIVITY (MIC) (Candida krussii) [µg/mL] | ANTIFUNGAL ACTIVITY (MIC) (Aspergillus fumigatus) [µg/mL] | ANTIFUNGAL ACTIVITY (MIC) (Candida tropicalis; [6]) | ANTIFUNGAL ACTIVITY (MIC) (Candida tropicalis; [7]) | ANTIFUNGAL ACTIVITY (MIC) (Candida lusitaniae) | IC50 [1] [µg/mL]
1 | C[C@@H]1[C@H](O)[C@@H](C)/C=C/C=C/C=C/C=C/C=C/C=C/C=C/[C@H](O[C@@H]2O[C@H](C)[C@@H](O)[C@H](N)[C@@H]2O)C[C@@H]2O[C@](O)(C[C@@H](O)C[C@@H](O)[C@H](O)CC[C@@H](O)C[C@@H](O)CC(=O)O[C@H]1C)C[C@H](O)[C@H]2C(=O)O [Amphotericin B, amphotericin B] | 0.25 | 0.50 | 0.25 | ≦0.06 μg/mL | 0.12 | 0.12 | ≦0.06 μg/mL | ≦0.06 μg/mL | 0.12 | ≦0.06 μg/mL | 0.12 | 0.25 | ≦0.06 μg/mL | ≦0.06 μg/mL | ≦0.06 μg/mL | –
2 | CO[C@@H]1C[C@H](C[C@@H](C)[C@@H]2CC(=O)[C@H](C)/C=C(\C)[C@@H](O)[C@@H](OC)C(=O)[C@H](C)C[C@H](C)/C=C/C=C/C=C(\C)[C@@H](O)C[C@@H]3CC[C@@H](C)[C@@](O)(O3)C(=O)C(=O)N3CCCC[C@H]3C(=O)O2)CC[C@H]1OC(=O)C(C)(CO)CO [Compound I, 7-Desmethylrapamycin 42-ester with 3-hydroxy-2-(hydroxymethyl)-2-methylpropionic acid] | 2 | 64 | 64 | 1 µg/mL | 4 | 1 | 2 µg/mL | 2 µg/mL | 4 | 2 µg/mL | 0.5 | 64 | 1 µg/mL | 1 µg/mL | 1 µg/mL | 0.0065 (≈ 6.4 nM)
3 | C[C@@H]1[C@H](O)[C@@H](C)/C=C/C=C/CC/C=C/C=C/C=C/C=C/C(O[C@H]2O[C@H](C)[C@@H](O)[C@H](N)[C@@H]2O)CC2O[C@](O)(CC(O)C(O)CCC(O)CC(O)CC(O)CC(=O)O[C@H]1C)CC(O)C2C(=O)O (stereo partly shown) [Nystatin] | 1 | 2 | 1 | 1 µg/mL | 1 | 1 | 1 µg/mL | 2 µg/mL | 1 | 2 µg/mL | 1 | 2 | 1 µg/mL | 1 µg/mL | 1 µg/mL | –

From patent US6399626B1, “Hydroxyesters of 7-desmethylrapamycin” (Wyeth, priority 2000, dated 2002)
